Reference: PMC11149917, “Translational and Therapeutic Evaluation of RAS-GTP Inhibition by RMC-6236 in RAS-Driven Cancers” (Cancer Discovery, 2024)

Experiments:
[1] = Plasma protein binding; assay type: in vitro ADME; settings: mouse, mice
[2] = system: PRISM panel of 845 cancer cell lines; assay: PRISM assay; assay type: cell-based, human
Experimental: The PRISM cell set comprised 845 cell lines representing more than 45 lineages (see Supplementary Table S1 for cell line information), which largely overlapped with the Cancer Cell Line Encyclopedia; https://portals.broadinstitute.org/ccle). Cell lines were grown in RPMI without phenol red and supplemented with 10% or 20% FBS for adherent and suspended lines, respectively. Parental cell lines were stably infected with a unique 24-nucleotide DNA barcode via lentiviral transduction and blasticidin selection. After selection, barcoded cell lines were expanded and subjected to quality control (Mycoplasma contamination test, an SNP test for confirming cell line identity, and barcode ID confirmation). Approved cell lines were then pooled (20–25 cell lines per pool) based on doubling time similarity and frozen in assay-ready vials.
RMC-6236 was added to 384-well plates at 8-point concentration with 3-fold dilutions in triplicate. These assay-ready plates were then seeded with the thawed cell line pools. Adherent cell pools were plated at 1,250 cells per well, whereas suspension and mixed adherent/suspension pools were plated at 2,000 cells per well. Treated cells were incubated for 5 days, and then lysed. Lysate plates were collapsed together prior to barcode amplification and detection.
Each cell line's unique barcode is located in the 3′UTR of the blasticidin-resistance gene and therefore is expressed as mRNA. Total mRNA was captured using magnetic particles that recognize polyA sequences. Captured mRNA was reverse-transcribed into cDNA and then the sequence containing the unique PRISM barcode was amplified using PCR. Finally, Luminex beads that recognize the specific barcode sequences in the cell set were hybridized to the PCR products and detected using a Luminex scanner which reports the signal as a median fluorescent intensity (MFI).
• Each detection well contained 10 control barcodes in increasing abundances as spike-in controls. For each plate, we first create a reference profile by calculating the median of the log2(MFI) values across negative control wells for each of these spiked-in barcodes. • For each well, a monotonic smooth p-spline was fitted to map the spike-in control levels to the reference profile. Next, we transform the log2(MFI) for each cell barcode using the fitted spline to allow well-to-well comparisons by correcting for amplification and detection artifacts. • Next, the separability between negative and positive control treatments was assessed. In particular, we calculated the error rate of the optimum simple threshold classifier between the control samples for each cell line and plate combination. The error rate is a measure of the overlap of the two control sets and was defined as error = (FP + FN)/n, where FP is false positives, FN is false negatives, and n is the total number of controls. A threshold was set between the distributions of positive and negative control log2(MFI) values (with everything below the threshold said to be positive and above said to be negative) such that this value is minimized. Additionally, we also calculated the dynamic range of each cell line. […] Additionally, any cell line that had less than 2 passing replicates was also omitted for the sake of reproducibility. Finally, we computed viability by normalizing with respect to the median negative control for each plate.
For every gene with nonsilent mutations in at least four cell lines, we compared the AUC values between cells with and without those mutations using a t test. This analysis was carried out for (i) the full data set; (ii) excluding cell lines with nonsilent KRAS mutations; and (iii) excluding cell lines that have either KRAS or NRAS nonsilent mutations.

For `CCn1c(-c2cc(N3CCN(C)CC3)cnc2[C@H](C)OC)c2c3cc(ccc31)-c1csc(n1)C[C@H](NC(=O)[C@H]1C[C@@H]1C)C(=O)N1CCC[C@H](N1)C(=O)OCC(C)(C)C2` [RMC-6236], the fraction unbound [1] was 0.011, the “RMC-6236: RevMed PRISM: AUC” value ([2]; 22RV1_PROSTATE) was 0.9065 and the “RMC-6236: RevMed PRISM: AUC” value ([2]; A427_LUNG, KRAS p.G12D) was 0.4282. For the same compound, the “RMC-6236: RevMed PRISM: AUC” value ([2]; A704_KIDNEY) was 1, the “RMC-6236: RevMed PRISM: AUC” value ([2]; A1207_CENTRAL_NERVOUS_SYSTEM) was 1 and the “RMC-6236: RevMed PRISM: AUC” value ([2]; BICR16_UPPER_AERODIGESTIVE_TRACT) was 0.548. The “RMC-6236: RevMed PRISM: AUC” value ([2]; CAL54_KIDNEY) was 1, the “RMC-6236: RevMed PRISM: AUC” value ([2]; CAL72_BONE) was 0.8456 and the “RMC-6236: RevMed PRISM: AUC” value ([2]; CAL120_BREAST) was 0.7982. The “RMC-6236: RevMed PRISM: AUC” value ([2]; CHLA15_AUTONOMIC_GANGLIA) was 0.6747, the “RMC-6236: RevMed PRISM: AUC” value ([2]; COLO678_LARGE_INTESTINE, KRAS p.G12D) was 0.7109 and the “RMC-6236: RevMed PRISM: AUC” value ([2]; COLO679_SKIN) was 0.8171. The “RMC-6236: RevMed PRISM: AUC” value ([2]; CORL23_LUNG, KRAS p.G12V) was 0.4445, the “RMC-6236: RevMed PRISM: AUC” value ([2]; DETROIT562_UPPER_AERODIGESTIVE_TRACT) was 0.5051 and the “RMC-6236: RevMed PRISM: AUC” value ([2]; DMS53_LUNG) was 0.9861. The “RMC-6236: RevMed PRISM: AUC” value ([2]; EBC1_LUNG) was 0.478, the “RMC-6236: RevMed PRISM: AUC” value ([2]; ECGI10_OESOPHAGUS) was 0.6603 and the “RMC-6236: RevMed PRISM: AUC” value ([2]; EW8_BONE) was 0.6608. The “RMC-6236: RevMed PRISM: AUC” value ([2]; EWS502_BONE) was 0.706, the “RMC-6236: RevMed PRISM: AUC” value ([2]; FADU_UPPER_AERODIGESTIVE_TRACT) was 0.6934 and the “RMC-6236: RevMed PRISM: AUC” value ([2]; G292CLONEA141B1_BONE) was 0.9519. For the same compound, the “RMC-6236: RevMed PRISM: AUC” value ([2]; GB2_BILIARY_TRACT) was 0.6327, the “RMC-6236: RevMed PRISM: AUC” value ([2]; H357_UPPER_AERODIGESTIVE_TRACT, HRAS p.G13S) was 0.44 and the “RMC-6236: RevMed PRISM: AUC” value ([2]; HARA_LUNG) was 0.583. For the same compound, the “RMC-6236: RevMed PRISM: AUC” value ([2]; HCC827_LUNG) was 0.8007, the “RMC-6236: RevMed PRISM: AUC” value ([2]; HCC1195_LUNG, NRAS p.Q61L) was 0.7308 and the “RMC-6236: RevMed PRISM: AUC” value ([2]; HCC1937_BREAST) was 0.9056. For the same compound, the “RMC-6236: RevMed PRISM: AUC” value ([2]; HCSC1_CERVIX, NRAS p.G13R) was 1, the “RMC-6236: RevMed PRISM: AUC” value ([2]; HDQP1_BREAST) was 0.5485 and the “RMC-6236: RevMed PRISM: AUC” value ([2]; HEYA8_OVARY, KRAS p.G12D) was 0.6142. The “RMC-6236: RevMed PRISM: AUC” value ([2]; HT29_LARGE_INTESTINE) was 0.9177, the “RMC-6236: RevMed PRISM: AUC” value ([2]; HT115_LARGE_INTESTINE) was 0.7857 and the “RMC-6236: RevMed PRISM: AUC” value ([2]; IGR39_SKIN) was 0.916. For the same compound, the “RMC-6236: RevMed PRISM: AUC” value ([2]; JHH6_LIVER) was 0.7876, the “RMC-6236: RevMed PRISM: AUC” value ([2]; JHOC5_OVARY) was 0.7067 and the “RMC-6236: RevMed PRISM: AUC” value ([2]; KE39_STOMACH) was 0.7632. The “RMC-6236: RevMed PRISM: AUC” value ([2]; KE97_STOMACH) was 0.8452, the “RMC-6236: RevMed PRISM: AUC” value ([2]; KKU100_BILIARY_TRACT, KRAS p.G12D) was 0.4482 and the “RMC-6236: RevMed PRISM: AUC” value ([2]; KKU213_BILIARY_TRACT, KRAS p.G13C) was 0.6654. The “RMC-6236: RevMed PRISM: AUC” value ([2]; KLE_ENDOMETRIUM) was 0.9884, the “RMC-6236: RevMed PRISM: AUC” value ([2]; KMS34_HAEMATOPOIETIC_AND_LYMPHOID_TISSUE) was 0.7785 and the “RMC-6236: RevMed PRISM: AUC” value ([2]; KOSC2CL343_UPPER_AERODIGESTIVE_TRACT) was 0.6166. The “RMC-6236: RevMed PRISM: AUC” value ([2]; KP2_PANCREAS, KRAS p.G12R) was 0.4026, the “Median AUC (PRISM)” value ([2]; KRAS^MUT cell lines) was 0.57 and the “RMC-6236: RevMed PRISM: AUC” value ([2]; KU1919_URINARY_TRACT, NRAS p.Q61R) was 0.3992. The “RMC-6236: RevMed PRISM: AUC” value ([2]; KYSE30_OESOPHAGUS, HRAS p.Q61L) was 0.6346, the “RMC-6236: RevMed PRISM: AUC” value ([2]; KYSE150_OESOPHAGUS) was 0.7237 and the “RMC-6236: RevMed PRISM: AUC” value ([2]; KYSE410_OESOPHAGUS, KRAS p.G12C) was 0.5271. The “RMC-6236: RevMed PRISM: AUC” value ([2]; KYSE450_OESOPHAGUS) was 0.5198, the “RMC-6236: RevMed PRISM: AUC” value ([2]; LI7_LIVER) was 0.743 and the “RMC-6236: RevMed PRISM: AUC” value ([2]; LOVO_LARGE_INTESTINE, KRAS p.G13D) was 0.6638. The “RMC-6236: RevMed PRISM: AUC” value ([2]; LOXIMVI_SKIN) was 0.876.
